In EP0049049A1, “5-Amino-tetrazole derivatives, processes for their preparation and pharmaceutical compositions containing them” (GLAXO GROUP LIMITED, priority 1980, dated 1982):
Where two headings read alike, the source gives them in different places.

Test system: perfused rat stomach
Test: perfused rat stomach test (inhibition of gastric acid secretion stimulated via histamine receptors)
Assay type: in vivo
From the text: Certain novel heterocyclic derivatives have now been found which have potent activity as H2-antagonists. […] Certain compounds according to the invention have the advantage of an extended duration of action .

Structure (SMILES)	ED50 (read-out: ED50) [mg/kg]	ED50
CC(C)n1nnnc1NCCCCOc1cccc(CN2CCCCC2)c1 [1(c), l-(l-methylethyl)-N-[4-[3-(1-piperidinylmethyl)phenoxy]butyl]-1H-tetrazol-5-amine]	< 0.22	–
CN(C)Cc1cc(CSCCNc2nnnn2C)cs1 [5(b), N-[2-[[5-(dimethylamino)methyl-3-thienylmethyl]thio]ethyl]-1-methyl-lH-tetrazol-5-amine]	–	less than 0.22 mg/kg
CCCCCCNCc1cccc(OCCCNc2nnnn2C)c1 [7(b), N-[3-[3-[(hexylamino)methyl]phenoxy]propyl]-1-methyl-1H-tetrazol-5-amine hydrate (4:1)]	< 0.22	–
OCCn1nnnc1NCCCOc1cccc(CN2CCCCC2)c1 [Example 4, 5-[[3-[3-(1-piperidinylmethyl)phenoxy]propyl]amino]-1H-tetrazol-1-(2-ethanol) hydrate (4 : 1)]	< 0.22	–
Cn1nnnc1NCCCOc1cccc(CN2CCCCC2)c1 [l(a), 1-Methyl-N-[3-[3-(1-piperidinylmethyl)phenoxy]propyl]-1H-tetrazol-5-amine]	< 0.22	–
CN(C)Cc1cccc(OCCCNc2nnnn2C)c1 [l(d), l-methyl-N-[[3-[3-(dimethylamino)methyl]phenoxy]propyl]-lH-tetrazol-5-amine]	< 0.22	–
